What was measured:
Kasumi-1 cells = assay: Kasumi-1 xenograft model in SCID mice; assay type: in vivo
Procedure: Figure 5. […] (A) and (B) Plots of tumor volume (A) and body weight (B). (C) and (D) Tumor size (C) and body weight (D) at sacrifice after 3 weeks of treatment. DOI: http://dx.doi.org/10.7554/eLife.11156.012
Severe combined immunodeficiency (SCID) mice were injected with 30 million Kasumi-1 cells in 100 μl of PBS and 100 μl of Matrigel. […] Tumor volume and body weight were recorded every 2 days. After 3 weeks of treatment, the mice were killed and tumor size and body weight were recorded. All mice were maintained according to National Institutes of Health guidelines and all animal use protocols were approved by the Institutional Animal Care and Use Committee.

CBP = biological target: T1, CBP (Homo sapiens, UniProt Q92793); assay: In vitro HAT assay with recombinant CBP, histones and 14C acetyl-CoA; assay type: biochemical; settings: read-out: IC50, CBP-mediated acetyltransferase activity
T1 construct: purchased Enzo Life Sciences
T1 sequence (Q92793 whole entry): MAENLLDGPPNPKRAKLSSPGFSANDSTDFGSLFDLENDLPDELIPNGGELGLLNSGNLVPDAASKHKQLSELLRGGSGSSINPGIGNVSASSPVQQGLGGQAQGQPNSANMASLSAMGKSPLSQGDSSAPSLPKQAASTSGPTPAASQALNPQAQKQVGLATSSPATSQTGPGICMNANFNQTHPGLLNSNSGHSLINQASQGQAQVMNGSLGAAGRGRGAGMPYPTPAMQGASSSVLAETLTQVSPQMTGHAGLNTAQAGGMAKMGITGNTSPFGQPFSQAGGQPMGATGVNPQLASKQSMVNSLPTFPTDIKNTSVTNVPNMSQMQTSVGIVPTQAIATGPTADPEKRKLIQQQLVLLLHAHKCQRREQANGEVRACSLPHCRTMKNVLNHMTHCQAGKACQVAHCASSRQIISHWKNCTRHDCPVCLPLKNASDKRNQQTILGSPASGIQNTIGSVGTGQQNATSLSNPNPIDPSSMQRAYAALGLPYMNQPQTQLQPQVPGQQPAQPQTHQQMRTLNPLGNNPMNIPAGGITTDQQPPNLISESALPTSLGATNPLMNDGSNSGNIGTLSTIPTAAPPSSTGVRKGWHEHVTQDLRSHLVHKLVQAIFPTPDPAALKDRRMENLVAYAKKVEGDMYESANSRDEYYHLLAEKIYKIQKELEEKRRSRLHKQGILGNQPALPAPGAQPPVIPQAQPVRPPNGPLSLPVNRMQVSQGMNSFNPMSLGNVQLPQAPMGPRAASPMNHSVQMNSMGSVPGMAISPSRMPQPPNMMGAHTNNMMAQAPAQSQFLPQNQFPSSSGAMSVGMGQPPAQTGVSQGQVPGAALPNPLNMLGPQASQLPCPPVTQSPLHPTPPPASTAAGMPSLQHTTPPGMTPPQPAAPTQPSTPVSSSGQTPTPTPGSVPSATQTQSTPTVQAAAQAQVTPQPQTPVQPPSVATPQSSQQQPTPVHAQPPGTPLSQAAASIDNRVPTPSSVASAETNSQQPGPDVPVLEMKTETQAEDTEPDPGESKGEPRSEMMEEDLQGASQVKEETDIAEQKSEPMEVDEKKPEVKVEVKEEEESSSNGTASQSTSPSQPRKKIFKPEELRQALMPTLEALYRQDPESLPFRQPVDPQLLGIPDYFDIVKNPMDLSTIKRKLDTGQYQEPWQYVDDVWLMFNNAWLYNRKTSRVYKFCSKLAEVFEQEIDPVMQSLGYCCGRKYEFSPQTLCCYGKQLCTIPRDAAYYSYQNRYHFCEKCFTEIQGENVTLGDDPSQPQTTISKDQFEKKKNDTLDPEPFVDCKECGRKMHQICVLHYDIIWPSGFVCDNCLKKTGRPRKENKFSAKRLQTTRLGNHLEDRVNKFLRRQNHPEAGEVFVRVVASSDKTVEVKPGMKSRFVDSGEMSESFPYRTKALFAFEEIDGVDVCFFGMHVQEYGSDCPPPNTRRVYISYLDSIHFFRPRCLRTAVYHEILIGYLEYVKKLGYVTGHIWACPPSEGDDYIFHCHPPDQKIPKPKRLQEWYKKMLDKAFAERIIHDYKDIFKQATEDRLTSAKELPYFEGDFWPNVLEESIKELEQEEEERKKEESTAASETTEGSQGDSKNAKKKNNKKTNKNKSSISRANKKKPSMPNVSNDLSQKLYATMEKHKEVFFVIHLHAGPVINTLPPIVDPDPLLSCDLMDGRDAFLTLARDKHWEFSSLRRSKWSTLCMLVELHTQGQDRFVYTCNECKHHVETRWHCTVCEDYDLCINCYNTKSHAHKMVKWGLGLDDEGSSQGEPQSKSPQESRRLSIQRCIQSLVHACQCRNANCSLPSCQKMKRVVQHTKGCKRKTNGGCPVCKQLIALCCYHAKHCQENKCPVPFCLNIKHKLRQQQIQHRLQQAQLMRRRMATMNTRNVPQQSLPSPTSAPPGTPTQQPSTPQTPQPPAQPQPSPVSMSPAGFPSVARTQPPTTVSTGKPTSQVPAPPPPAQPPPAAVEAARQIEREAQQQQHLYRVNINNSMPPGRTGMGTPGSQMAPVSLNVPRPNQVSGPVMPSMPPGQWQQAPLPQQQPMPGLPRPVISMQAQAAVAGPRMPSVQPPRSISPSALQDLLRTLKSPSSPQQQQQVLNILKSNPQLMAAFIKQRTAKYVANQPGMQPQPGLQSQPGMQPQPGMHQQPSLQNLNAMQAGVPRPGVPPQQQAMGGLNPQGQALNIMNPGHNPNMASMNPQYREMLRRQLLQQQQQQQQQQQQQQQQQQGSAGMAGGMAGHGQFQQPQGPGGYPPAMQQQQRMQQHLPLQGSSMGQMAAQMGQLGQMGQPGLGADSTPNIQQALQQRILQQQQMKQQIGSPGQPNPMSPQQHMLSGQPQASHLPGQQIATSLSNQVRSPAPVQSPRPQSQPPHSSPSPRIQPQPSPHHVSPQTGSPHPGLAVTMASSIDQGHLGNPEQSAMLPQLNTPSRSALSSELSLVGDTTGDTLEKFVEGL
Procedure: (§1) To determine whether salicylate inhibits p300 and other acetyltransferases, we used in vitro acetylation assays with purified histones and a recombinant p300 catalytic domain.
(§2) Figure 1. Salicylate inhibits CBP/p300 in vitro. (A) Recombinant p300, CBP, GCN5, or PCAF and histones were incubated with ^14C-labeled acetyl-CoA with or without sodium salicylate, separated by SDS-PAGE, analyzed by autoradiography, and quantified with Image J software. Acetylation levels are relative to those in untreated controls. (B) Thermal stability assay for sodium salicylate binding to the p300 HAT domain. Tm, melting temperature. […] Histone acetylation was measured with several concentrations of acetyl-CoA (C) or histone (D) in the presence or absence of sodium salicylate. […] Acetylation of an H4(3–14) peptide was monitored using direct microfluidic mobility shift analysis as previously described ([Montgomery et al., 2014]; [Fanslau et al., 2010]). […]
(§3) Recombinant HAT ([…]), either p300, CBP, PCAF, or GCN5 (Enzo Life Sciences), and 10 µg of histones (Sigma) were incubated with sodium salicylate (Sigma) in reaction buffer (50 mM HEPES, pH 8.0, 10% glycerol, 1 mM) at 30°C for 30 min and then with 0.1 mCi of ^14C acetyl-CoA at 30°C for 60 min. Reactions were stopped by adding 6x sample buffer and analyzed by SDS-PAGE. […]

GCN5 = biological target: T2, GCN5 (Homo sapiens, UniProt Q92830); assay: In vitro HAT assay with recombinant GCN5, histones and 14C acetyl-CoA; assay type: biochemical
T2 construct: purchased Enzo Life Sciences
T2 sequence (Q92830 whole entry, species assumed): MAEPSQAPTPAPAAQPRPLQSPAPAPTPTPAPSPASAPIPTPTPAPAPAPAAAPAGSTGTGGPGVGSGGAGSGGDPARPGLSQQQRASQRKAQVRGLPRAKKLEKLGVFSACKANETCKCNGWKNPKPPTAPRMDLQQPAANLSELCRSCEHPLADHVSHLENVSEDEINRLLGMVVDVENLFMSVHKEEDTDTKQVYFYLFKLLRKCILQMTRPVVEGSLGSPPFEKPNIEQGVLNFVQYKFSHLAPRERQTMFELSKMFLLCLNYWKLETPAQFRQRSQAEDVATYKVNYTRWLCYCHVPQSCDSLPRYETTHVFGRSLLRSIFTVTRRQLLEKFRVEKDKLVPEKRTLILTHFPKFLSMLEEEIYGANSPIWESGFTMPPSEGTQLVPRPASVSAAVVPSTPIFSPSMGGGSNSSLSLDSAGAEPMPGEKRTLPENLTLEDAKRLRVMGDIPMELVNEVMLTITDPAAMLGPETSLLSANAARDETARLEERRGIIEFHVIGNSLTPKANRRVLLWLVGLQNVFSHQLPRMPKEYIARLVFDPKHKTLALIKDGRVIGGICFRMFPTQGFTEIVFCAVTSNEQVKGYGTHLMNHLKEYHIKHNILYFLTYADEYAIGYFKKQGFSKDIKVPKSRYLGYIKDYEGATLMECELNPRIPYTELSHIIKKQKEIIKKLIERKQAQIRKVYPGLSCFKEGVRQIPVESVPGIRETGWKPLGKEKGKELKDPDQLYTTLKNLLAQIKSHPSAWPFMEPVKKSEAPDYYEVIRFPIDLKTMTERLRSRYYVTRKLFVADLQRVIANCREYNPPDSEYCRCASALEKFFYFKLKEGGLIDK
Procedure: as §1, §2, §3

[1] = biological target: T3, p300 HAT domain (residues 1279–1666, Tyr1467Phe) (Homo sapiens, UniProt Q09472, Y1467F); assay: Thermal stability assay (SYPRO orange); assay type: binding; settings: p300/acetyl-CoA without salicylate 48.6°C
T3 construct: 6-His (N, cleaved yes); made in house; host or cells: E. coli BL21 (DE3)
T3 sequence (Q09472 1279-1666 Y1467F): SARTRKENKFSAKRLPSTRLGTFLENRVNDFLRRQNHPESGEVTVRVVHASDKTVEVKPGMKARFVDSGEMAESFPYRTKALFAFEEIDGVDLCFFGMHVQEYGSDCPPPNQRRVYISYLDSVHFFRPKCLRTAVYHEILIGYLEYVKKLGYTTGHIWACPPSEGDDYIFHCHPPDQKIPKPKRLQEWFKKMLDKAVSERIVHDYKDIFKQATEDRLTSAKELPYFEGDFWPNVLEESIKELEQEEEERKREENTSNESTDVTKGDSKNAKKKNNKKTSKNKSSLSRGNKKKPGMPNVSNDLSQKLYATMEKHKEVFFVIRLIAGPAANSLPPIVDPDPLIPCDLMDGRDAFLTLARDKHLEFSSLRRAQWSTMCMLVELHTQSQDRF
Procedure: To confirm that salicylate binds to p300, we used thermal stability assays. A p300 HAT domain construct (residues 1279–1666) bearing an inactivating Tyr1467Phe mutation to facilitate purification of homogeneously hypoacetylated p300 was expressed and purified with an N-terminal 6-His tag from E. coli cells. The protein was further purified by chromatography and incubated with increasing concentrations of sodium salicylate for 30 min and with SYPRO orange dye (Invitrogen). Thermal melt curves were obtained by heating the protein from 20–95°C and monitoring fluorescence at 590 nm.
A thermal stability assay was used to assess the binding of salicylate to the p300 HAT domain. A p300 HAT domain construct (residues 1279–1666) bearing an inactivating Tyr1467Phe mutation to facilitate purification of homogeneously hypoacetyalted p300 was cloned into a pET-DUET vector with an N-terminal 6-His tag and expressed in BL21 (DE3) E. coli cells. […]
The final concentration of p300 was 2 μM in reaction buffer (0.1 M HEPES, pH 7.5, 150 mM NaCl, and 5 mM -mercaptoethanol). […] Thermal melt curves were obtained by heating the protein from 20–95°C and monitoring fluorescence at 590 nm with a 7900HT Fast Real Time PCR System (Applied Biosystems). […]

[2] = 50 or 100 mg/kg orally, daily, 3 weeks

Structure (SMILES)	Effect on body weight (Kasumi-1 cells; [2])	Tumor volume (Kasumi-1 cells; [2])	Tumor size versus vehicle-treated controls (Kasumi-1 cells; after 3 weeks of treatment)	Tumors at sacrifice (Kasumi-1 cells; higher dose (100 mg/kg), after 3 weeks of treatment)	IC50 (CBP)	Inhibition of GCN5 acetyltransferase (GCN5)	Thermal unfolding temperature of p300 HAT domain ([1]; 10 mM salicylate)	Thermal unfolding temperature of p300 HAT domain ([1]; 25 mM salicylate)
O=C(O)c1cc(-c2ccc(F)cc2F)ccc1O [diflunisal]	minimal effects on body weight	reduced tumor volumes in a dose-dependent manner	significantly smaller	most of the tumors had disappeared	–	–	–	–
O=C(O)c1ccccc1O [salicylate, salicylic acid]	–	–	–	–	5.7 mM	did not detectably inhibit	46.1 °C	40.8 °C

— PMC4931907 (eLife, 2016)
